Measurements: publication PMC3598914, “In Vivo Detection of Human TRPV6-Rich Tumors with Anti-Cancer Peptides Derived from Soricidin” (PLoS ONE, 2013)
“Also recorded” adds a separate entry of the source. Residues, ends and D or L forms follow the SMILES beside them.

Legend:
[1] = test system: HEK-293 cells transfected with TRPV6; settings: low doses; cited from earlier work
Excerpt: (§1) The link between tumor growth and over-expression of TRPV6 may involve the potentiation of calcium-dependent cell proliferation and inhibition of apoptosis. […] In the LNCaP prostate cancer cell line, up-regulation of TRPV6 augments proliferation and cell survival while retarding apoptosis through a mechanism that appears to involve activation of the nuclear factor of activated T-cell (NFAT) transcription ...

human TRPV6 channels = target: T1, human TRPV6 channels (Homo sapiens, UniProt Q9H1D0); assay: whole-cell patch clamp of TRPV6/EGFP transfected HEK-293 cells; format: cell-based; settings: for Kd: washout not possible under voltage ramp stimulation, Kd estimated, read-out: K1 (Kd estimated to be equal to K1); for reduction of TRPV6 current amplitude / reduction of maximum TRPV6 current amplitude: p<0.05; for reduction of maximum TRPV6 current amplitude: n = 5, successive exposures
T1 construct: containing cDNA for the protein-coding region of TRPV6; expressed in transfected cells; host or cells: HEK-293 cells transiently transfected with pdi-CaT-L (pCAGGS backbone, gift of V. Flockerzi)
T1 sequence (Q9H1D0 41-765 limits assumed): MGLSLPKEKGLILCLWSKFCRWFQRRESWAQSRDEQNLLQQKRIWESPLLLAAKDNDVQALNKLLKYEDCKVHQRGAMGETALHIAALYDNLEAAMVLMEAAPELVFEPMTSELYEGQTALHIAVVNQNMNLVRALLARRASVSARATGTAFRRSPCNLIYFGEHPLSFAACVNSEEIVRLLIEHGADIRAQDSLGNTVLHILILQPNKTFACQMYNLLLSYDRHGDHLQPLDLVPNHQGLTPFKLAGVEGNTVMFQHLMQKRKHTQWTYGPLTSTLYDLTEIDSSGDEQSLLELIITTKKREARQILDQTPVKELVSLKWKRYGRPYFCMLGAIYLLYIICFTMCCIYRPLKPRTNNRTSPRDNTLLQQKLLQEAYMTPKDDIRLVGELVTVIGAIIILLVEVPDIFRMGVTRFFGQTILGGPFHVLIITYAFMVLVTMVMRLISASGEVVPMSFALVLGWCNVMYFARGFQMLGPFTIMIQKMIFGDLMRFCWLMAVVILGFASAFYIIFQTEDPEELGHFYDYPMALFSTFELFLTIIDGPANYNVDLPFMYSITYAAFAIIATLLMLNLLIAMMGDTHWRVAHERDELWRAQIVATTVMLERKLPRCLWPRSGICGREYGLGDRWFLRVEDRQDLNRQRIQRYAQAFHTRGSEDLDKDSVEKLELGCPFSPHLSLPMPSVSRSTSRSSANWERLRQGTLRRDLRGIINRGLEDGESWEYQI
Method: Human HEK-293 cells (6–9 passages) were plated in a 24-well plate at a density of 5×10^5 cells per well, 24 hours before transfection. Each well was diluted in serum-free medium and incubated for 5 minutes at room temperature then combined slowly and incubated at room temperature. After a 20 minute incubation, cells were exposed to the transfection complex consisting of 0.5 µg of pdi-CaT-L plasmid DNA (a gift from Dr. V. Flockerzi, Experimentelle und Klinische Pharmakologie und Toxikologie der Universität des Saarlandes) and 1.5 µl lipofectamine 2000 reagent. pdi-CaT-L is a bicistronic expression vector containing cDNA for the protein-coding region of TRPV6 and the mutated Green Fluorescent Protein (S65T; EGPF) separated by an […] (β-actin promoter /KOZAK/TRPV6/IRES/EGFP in pCAGGS). The IRES was derived from encephalomyocarditis virus. Transfection of HEK-293 cells with the bicistronic vector allows for simultaneous production of TRPV6 and EGFP and selection of fluorescent cells producing TRPV6 for the electrophysiology measurements. From previous investigations using this plasmid and other similar plasmids, it was determined that the TRPV6 channel is highly expressed, localized at the membrane surface, glycosylated and constitutively active giving rise to a Ca^2+-invoked inward current [33]–[35].
Whole-cell patch clamp recordings were performed on HEK-293 cells expressing TRPV6 and EGFP. Transfected cells were readily identified from non-transfected cells using a fluorescent Axiovert 135 microscope […]. The recordings were performed using an Axopatch 1D amplifier controlled and monitored using pClamp 9 software (MDS Analytical Technologies, Sunnyvale, CA, USA). Data sets were digitized at 20 kHz and filtered at 2 kHz. […] The extracellular solution contained: 145 mM NaCl, 10 mM CsCl, 10 mM CaCl2, 2 mM MgCl2, 2.8 mM KCl, 10 mM HEPES and 10 mM glucose with pH adjusted to 7.2 using NaOH.
To isolate TRPV6 currents, HEK-293 and transfected HEK-293 cells were voltage-clamped at +50 mV with a 50 ms linear voltage ramp (−110 mV to +90 mV) protocol applied in the presence or absence of a TRPV6 inhibitor, La^3+ ions (10 µM), SOR-C27, SOR-C13 or SOR-C27-Cy5.5. Although the La^3+ ion is a non-specific inhibitor there is currently no known selective inhibitor of the TRPV6 channel. The ramp was averaged over 10 times at 2 s intervals between ramps.
Analysis was performed off-line using IGOR (WaveMetrics Inc., Lake Oswego, OR, USA) software. The statistical significance was determined with paired Students' t-test (two-tailed). All values are expressed as mean ± SEM with a p-value of <0.05 considered significant.

TRPV6 = settings: breast cancer cells; cited from earlier work
Excerpt: as §1

TRPV6 channels = settings: cited from earlier work
Excerpt: Herein, we described the TRPV6 binding properties of SOR-C13 and SOR-C27 and the ability of these peptides to target human ovarian tumors in ...

[2] = Table 1; no reference given; cited from earlier work
Excerpt: Table 1 Amino acid sequences of parent soricidin (accession number P0C2P6), SOR-C27 and SOR-C13. | column: Activity

[3] = solubility in NMR samples; format: physicochemical; settings: 10 mM in 90/10 H2O/D2O, 50 mM potassium phosphate pH 6.6; with 200 mM NaCl; with 100 mM DPC; 2 mM with 100 mM SDS; visual statement, 274 to 308 K
Method: Nuclear magnetic resonance (NMR) spectroscopic data was acquired to determine the conformational structural features of the SOR-C27 peptide under various conditions. A stock solution (sample #1) of 10 mM SOR-C27 was prepared in 90/10 H2O/D2O with 50 mM potassium phosphate buffer at pH 6.6. From sample #1, three additional samples were prepared: #2) stock solution with 200 mM NaCl, #3) stock solution with 100 mM dodecylphosphocholine (DPC) and #4) stock solution diluted to 2 mM with 100 mM sodium dodecylsulfate (SDS).

[4] = target: T2, SOR-C27 (soricidin C-terminal peptide) (Blarina brevicauda); assay: whole-cell patch clamp
T2 chain: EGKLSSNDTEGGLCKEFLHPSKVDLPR

[5] = target: T3, SOR-C13 (soricidin C-terminal peptide) (Blarina brevicauda); assay: whole-cell patch clamp
T3 chain: KEFLHPSKVDLPR

In the case of `Clc1ccc(COC(Cn2ccnc2)c2ccc(Cl)cc2Cl)cc1` (stereo not drawn) [econazole], the “effect on calcium inflow signals and cell proliferation” value [1] is listed as “reduced both calcium inflow signals and cell proliferation”.

Work on `CC(C)C[C@H](NC(=O)[C@H](Cc1ccccc1)NC(=O)[C@H](CCC(=O)O)NC(=O)[C@@H](N)CCCCN)C(=O)N[C@@H](Cc1cnc[nH]1)C(=O)N1CCC[C@H]1C(=O)N[C@@H](CO)C(=O)N[C@@H](CCCCN)C(=O)N[C@H](C(=O)N[C@@H](CC(=O)O)C(=O)N[C@@H](CC(C)C)C(=O)N1CCC[C@H]1C(=O)N[C@@H](CCCNC(=N)N)C(=O)O)C(C)C` [SOR-C13] (H-KEFLHPSKVDLPR-OH) yielded a Kd (human TRPV6 channels) of 0.014 ± 0.0013 µM.

With `CC(C)C[C@H](NC(=O)[C@H](Cc1ccccc1)NC(=O)[C@H](CCC(=O)O)NC(=O)[C@@H](N)CCCCN)C(=O)N[C@@H](Cc1c[nH]cn1)C(=O)N1CCC[C@H]1C(=O)N[C@@H](CO)C(=O)N[C@@H](CCCCN)C(=O)N[C@H](C(=O)N[C@@H](CC(=O)O)C(=O)N[C@@H](CC(C)C)C(=O)N1CCC[C@H]1C(=O)N[C@@H](CCCNC(=N)N)C(=O)O)C(C)C` [SOR-C13] (H-KEFLHPSKVDLPR-OH) the “reduction of TRPV6 current amplitude” value (human TRPV6 channels; 83.5 nM, n = 9, mean ± SEM) was 18±4.0%, the “reduction of TRPV6 current amplitude” value (human TRPV6 channels; 417.5 nM, n = 9, mean ± SEM) was 22±4% and the “reduction of TRPV6 current amplitude” value (human TRPV6 channels; 835 nM, n = 7, mean ± SEM) was 24±4%. The “reduction of TRPV6 current amplitude” value (human TRPV6 channels; 25 µM, n = 7, mean ± SEM) was 25±5%.

In the case of `CC/C(=C(\c1ccccc1)c1ccc(OCCN(C)C)cc1)c1ccccc1` [tamoxifen], the “effect on TRPV6 expression and calcium signaling” value (TRPV6) is given as “reduces expression of TRPV6 and calcium signaling”.

For “DCSQDCAACSILARPAELNTETCILECEGKLSSNDTEGGLCKEFLHPSKVDLPR [Soricidin]”, the “inhibition of TRPV6 calcium channels / calcium uptake” value (TRPV6 channels) is listed as “found to inhibit the transient receptor potential of vallinoid type 6 (TRPV6) calcium channels; also recorded: inhibit calcium uptake via TRPV6 channels” and the Activity [2] is listed as “Pain/ Cancer”.

With `CC(C)C[C@H](NC(=O)CNC(=O)CNC(=O)[C@H](CCC(=O)O)NC(=O)[C@@H](NC(=O)[C@H](CC(=O)O)NC(=O)[C@H](CC(N)=O)NC(=O)[C@H](CO)NC(=O)[C@H](CO)NC(=O)[C@H](CC(C)C)NC(=O)[C@H](CCCCN)NC(=O)CNC(=O)[C@@H](N)CCC(=O)O)[C@@H](C)O)C(=O)N[C@@H](CS)C(=O)N[C@@H](CCCCN)C(=O)N[C@@H](CCC(=O)O)C(=O)N[C@@H](Cc1ccccc1)C(=O)N[C@@H](CC(C)C)C(=O)N[C@@H](Cc1c[nH]cn1)C(=O)N1CCC[C@H]1C(=O)N[C@@H](CO)C(=O)N[C@@H](CCCCN)C(=O)N[C@H](C(=O)N[C@@H](CC(=O)O)C(=O)N[C@@H](CC(C)C)C(=O)N1CCC[C@H]1C(=O)N[C@@H](CCCNC(=N)N)C(=O)O)C(C)C` [SOR-C27] (H-EGKLSSNDTEGGLCKEFLHPSKVDLPR-OH) the “reduction of maximum TRPV6 current amplitude” value (human TRPV6 channels; 65.2 nM, mean ± SEM) was 17±4%, the “reduction of maximum TRPV6 current amplitude” value (human TRPV6 channels; 326 nM, mean ± SEM) was 27±5% and the “reduction of maximum TRPV6 current amplitude” value (human TRPV6 channels; 652 nM, mean ± SEM) was 31±5%. The “reduction of maximum TRPV6 current amplitude” value (human TRPV6 channels; 20 µM, mean ± SEM) was 34±5%, the Kd (human TRPV6 channels) was 0.065 ± 0.001 µM and the IC50 (human TRPV6 channels; whole-cell patch clamp, 50 ms voltage ramp -110 to +90 mV, dose-response curve, mean ± SEM, b62/b63, read-out: IC50 (Kd) for reduction of TRPV6 current amplitude) was 0.065 ± 0.001 µM. For the same molecule, the solubility [3] was “completely soluble in all solutions and under all conditions”.

B1: TRPV6 (protein)
chain: MGPLQGDGGPALGGADVAPRLSPVRVWPRPQAPKEPALHPMGLSLPKEKGLILCLWSKFCRWFQRRESWAQSRDEQNLLQQKRIWESPLLLAAKDNDVQALNKLLKYEDCKVHQRGAMGETALHIAALYDNLEAAMVLMEAAPELVFEPMTSELYEGQTALHIAVVNQNMNLVRALLARRASVSARATGTAFRRSPCNLIYFGEHPLSFAACVNSEEIVRLLIEHGADIRAQDSLGNTVLHILILQPNKTFACQMYNLLLSYDRHGDHLQPLDLVPNHQGLTPFKLAGVEGNTVMFQHLMQKRKHTQWTYGPLTSTLYDLTEIDSSGDEQSLLELIITTKKREARQILDQTPVKELVSLKWKRYGRPYFCMLGAIYLLYIICFTMCCIYRPLKPRTNNRTSPRDNTLLQQKLLQEAYMTPKDDIRLVGELVTVIGAIIILLVEVPDIFRMGVTRFFGQTILGGPFHVLIITYAFMVLVTMVMRLISASGEVVPMSFALVLGWCNVMYFARGFQMLGPFTIMIQKMIFGDLMRFCWLMAVVILGFASAFYIIFQTEDPEELGHFYDYPMALFSTFELFLTIIDGPANYNVDLPFMYSITYAAFAIIATLLMLNLLIAMMGDTHWRVAHERDELWRAQIVATTVMLERKLPRCLWPRSGICGREYGLGDRWFLRVEDRQDLNRQRIQRYAQAFHTRGSEDLDKDSVEKLELGCPFSPHLSLPMPSVSRSTSRSSANWERLRQGTLRRDLRGIINRGLEDGESWEYQI
Molecule B1 has a Kd [4] of 0.065 µM and a Kd [5] of 0.014 µM.
